According to patent US20220370463A1, “STABILIZED C-FMS INTRACELLULAR FRAGMENTS (FICD) PROMOTE OSTEOCLAST DIFFERENTIATION AND ARTHRITIC BONE EROSION” (New York Society for the Relief of the Ruptured and …, priority 2019, published 2022):

Assays:
[1] = test system: NFATc1; assay: RANKL-induced NFATc1 expression in human OCPs (immunoblot, qPCR); assay type: cell-based
Method: (a and b) BMDMs from WT and FICDtg^M mice was stimulated with RANKL (50 ng/ml) at the indicated time. (a) RT-qPCR of Nfatc1 mRNA normalized relative to Hprt mRNA. (b) Immunoblot with anti NFATc1, HA, or α-tubulin antibodies. (c and d) BMDMs from Csf1r^f/+ Mx1-Cre mice were transduced by lentiviruses encoding FMS^wt, or FMS^mut and then cultured with M-CSF and RANKL. (c) Immunoblot of whole lysate with anti-NFATc1 antibody. α-tubulin was used as a control. […] The intensity of NFATc1 in FMS^mut was set as 100%. (d) Expression mRNA level of NFATc1. (e) Immunoblot of whole cell lysates with phospho-eIF4E antibodies. HA-tagged FICD was detected by HA-antibody. α-tubulin was used as a control. […] (f and g) Human CD14+ cells were treated with CGP57380 at the indicated doses for one hour and cultured with RANKL for one day. […] (g) Nfatc1 mRNA expression was measured by qPCR relative to HPRT. A DMSO-treated RANKL condition was set as 100%. […]
(§1) Whole cell extracts were prepared by lysis in buffer containing 1× Lamin sample buffer (Bio-rad) and 2-Mercaptoethanol (Sigma) or RIPA buffer (Sigma). […] The protein concentration of nuclear extracts was quantitated using the Bradford assay (Bio-Rad; 5000001). For immunoblot, proteins were separated on 7.5 or 10% SDS-PAGE gels, transferred to polyvinylidene difluoride membranes (PVDF, Millipore; ISEQ00010), and detected by antibodies as listed in the figure legends.

[2] = test system: NFATc1; assay: RANKL-induced NFATc1 expression in mouse OCPs (immunoblot, qPCR); assay type: cell-based
Method: (A and B) BMDMs from WT and FICDtg^M mice were cultured with RANKL for 24 hours. Immunoblot of whole cell lysates with phopho-p70S6K and phopho-4E-BP1 antibodies. HA-tagged FICDs were detected by HA-antibody. α-tubulin or P38 was used as a control. (C) BMDMs from female wild type LysM cre mice (WT) or RAPTORf/f-LysM cre mice (Raptor cKO) were cultured with M-CSF for 4 days and were stimulated with RANKL for the indicated days. Immunoblot of whole cell lysates with anti-Raptor, NFATc1, or α-tubulin antibodies. (D-F) BMDMs from WT mice were treated with CPG57380 at the indicated doses and then cultured with RANKL for one day. (D) Immunoblot of whole lysate with anti-NFATc1 antibody. α-tubulin was used as a control. […] The intensity of NFATc1 bands in RANKL treatment conditions (control) was set as 100%. (n=4) (E) Expression mRNA level of NFATc1. […]
as §1

[3] = test system: BMDM cells; assay: Mouse osteoclastogenesis assay in BMDMs (TRAP-positive multinuclear cells); assay type: cell-based
Method: (a and b) BMDMs from WT and FICDtg^M mice was stimulated with RANKL (50 ng/ml) at the indicated time. (a) RT-qPCR of Nfatc1 mRNA normalized relative to Hprt mRNA. (b) Immunoblot with anti NFATc1, HA, or α-tubulin antibodies. (c and d) BMDMs from Csf1r^f/+ Mx1-Cre mice were transduced by lentiviruses encoding FMS^wt, or FMS^mut and then cultured with M-CSF and RANKL. (c) Immunoblot of whole lysate with anti-NFATc1 antibody. α-tubulin was used as a control. […] The intensity of NFATc1 in FMS^mut was set as 100%. (d) Expression mRNA level of NFATc1. (e) Immunoblot of whole cell lysates with phospho-eIF4E antibodies. HA-tagged FICD was detected by HA-antibody. α-tubulin was used as a control. […] (f and g) Human CD14+ cells were treated with CGP57380 at the indicated doses for one hour and cultured with RANKL for one day. […] (g) Nfatc1 mRNA expression was measured by qPCR relative to HPRT. A DMSO-treated RANKL condition was set as 100%. (h) Osteoclastogenesis assay. […]
(A and B) BMDMs from WT and FICDtg^M mice were cultured with RANKL for 24 hours. […] HA-tagged FICDs were detected by HA-antibody. α-tubulin or P38 was used as a control. […]
For human osteoclastogenesis assays, cells were added to 96 well plates in triplicate at a seeding density of 5×10^4 cells per well. […] Multinucleated (greater than 3 nuclei), TRAP-positive osteoclasts were counted in triplicate wells. […]

[4] = test system: BMDMs from WT and FICDtg^M mice; assay: Cell viability assay in BMDMs; assay type: cell-based, mouse; conditions: CGP57380 at the indicated doses for one day
Method: (a and b) BMDMs from WT and FICDtg^M mice was stimulated with RANKL (50 ng/ml) at the indicated time. (a) RT-qPCR of Nfatc1 mRNA normalized relative to Hprt mRNA. (b) Immunoblot with anti NFATc1, HA, or α-tubulin antibodies. (c and d) BMDMs from Csf1r^f/+ Mx1-Cre mice were transduced by lentiviruses encoding FMS^wt, or FMS^mut and then cultured with M-CSF and RANKL. (c) Immunoblot of whole lysate with anti-NFATc1 antibody. α-tubulin was used as a control. […] The intensity of NFATc1 in FMS^mut was set as 100%. (d) Expression mRNA level of NFATc1. (e) Immunoblot of whole cell lysates with phospho-eIF4E antibodies. HA-tagged FICD was detected by HA-antibody. α-tubulin was used as a control. […] (f and g) Human CD14+ cells were treated with CGP57380 at the indicated doses for one hour and cultured with RANKL for one day. […] (g) Nfatc1 mRNA expression was measured by qPCR relative to HPRT. A DMSO-treated RANKL condition was set as 100%. (h) Osteoclastogenesis assay. BMDMs from WT and FICDtg^M mice were treated with CPG57380 at the indicated doses and then cultured with RANKL for three days. […] Scale bar: 100 μm. (i) Cell viability assay. BMDMs WT and FICDtg^M mice was stimulated with CPG57380 at the indicated doses for one day. (j-n) K/BxN serum transfer induced arthritis model. 9-week old male C57BL/6J mice were received K/BxN serum on day 0 and day 2. […]

[5] = test system: osteoclastogenesis; conditions: inhibiting proteosomal degradation; cited from earlier work
[6] = CGP57380, RANKL for one day, qPCR

SMILES	Nfatc1 mRNA expression [1, 6]	RANKL-induced NFATc1 protein expression ([1]; CGP57380 one hour, then RANKL for one day)	Nfatc1 mRNA expression [2, 6]	RANKL-induced NFATc1 protein expression ([2]; CGP57380, then RANKL for one day)	enhanced osteoclastogenesis in FICDtg^M cells ([3]; BMDMs from FICDtg^M mice, RANKL for three days)	osteoclast differentiation ([3]; BMDMs from WT mice, RANKL for 3 days)	cell viability [4]	osteoclastogenesis [5]
Nc1ncnc2n[nH]c(Nc3ccc(F)cc3)c12 [CGP57380]	marginally changed	suppressed RANKL-induced NFATc1 protein expression in a dose-dependent manner	marginally changed	suppressed RANKL-induced NFATc1 protein expression in a dose-dependent manner	inhibited the enhanced osteoclastogenesis in FICDtg^M cells to become comparable to osteoclasts in WT cells	suppressed osteoclast differentiation in a dose-dependent manner	minimal effect	
CC(C)C[C@H](NC(=O)[C@H](Cc1ccccc1)NC(=O)c1cnccn1)B(O)O [bortezomib]								suppresses osteoclastogenesis
